The text below walks through data of patent US20260001893A1, “SMALL MOLECULE MODULATORS OF STAT6” (Gilead Sciences, Inc., priority 2024, published 2026).

SMILES strings stand for the structures.

The test system of assay [1] is Eotaxin-3 (CCL26) release in human whole blood stimulated with IL-4. As to the kind of experiment: Human whole blood eotaxin-3 assay (IL-4 stimulated eotaxin-3 release). Format: cell-based. The conditions noted are these: human whole blood stimulated with recombinant human IL-4, 48 h, given for test compounds with <80% Emax, geometric mean. In a few lines: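 Lithium-heparin human whole blood was preincubated with compound (4-fold serial dilution, 0.5% DMSO final) for 2 h at 37° C, then stimulated with recombinant human IL-4 at […] final for 48 h. Eotaxin-3 (CCL26) in the supernatant was measured by MSD immunoassay.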

Assay [2] addresses T1, Human STAT6 (truncated, aa122-658, with N-terminal His-tag) (Homo sapiens, UniProt P42226).
T1 construct: Human STAT6 (truncated, aa122-658, with N-terminal His-tag, expressed in insect cells); His-tag (N); made in house; host or cells: insect cells
T1 sequence (P42226 122-658): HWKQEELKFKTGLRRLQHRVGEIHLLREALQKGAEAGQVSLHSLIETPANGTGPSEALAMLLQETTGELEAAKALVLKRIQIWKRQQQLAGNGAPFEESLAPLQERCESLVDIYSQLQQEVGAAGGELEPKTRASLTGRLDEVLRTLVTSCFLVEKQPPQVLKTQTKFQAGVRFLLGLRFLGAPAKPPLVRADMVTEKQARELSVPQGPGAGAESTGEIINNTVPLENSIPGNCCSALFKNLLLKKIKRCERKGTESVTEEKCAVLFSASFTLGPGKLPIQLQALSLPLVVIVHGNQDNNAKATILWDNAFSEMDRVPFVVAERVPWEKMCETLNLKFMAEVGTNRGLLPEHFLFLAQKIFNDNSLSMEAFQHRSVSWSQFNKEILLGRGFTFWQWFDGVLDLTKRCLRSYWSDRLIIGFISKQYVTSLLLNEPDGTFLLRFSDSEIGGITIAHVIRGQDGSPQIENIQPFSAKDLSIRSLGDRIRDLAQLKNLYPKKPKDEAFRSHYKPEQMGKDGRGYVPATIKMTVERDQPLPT
Kind of assay: Surface plasmon resonance (SPR) assay, binding to human STAT6. The conditions noted are these: Biacore 8K, 25° C, immobilized human STAT6 on CM5 chip, multi-cycle kinetics; geometric mean. The method, then:
Surface Plasmon Resonance Assay
Biacore instruments from the 8K-series (Cytiva) were used, and measurements were performed at 25° C. Human STAT6 (truncated, aa122-658, with N-terminal His-tag, expressed in insect cells) was immobilized in the active flow cells on a CM5 chip using amine-coupling (default settings) at 10 μg/ml in 10 mM acetate buffer pH 5.5, at a contact time of 120-420 sec. and a flow rate of 10 μl/min. Reference flow cells were deactivated using blank immobilization. PBS-P+(Cytiva) supplemented with 2% DMSO was used as running buffer, and solvent correction was applied. Compounds were tested by multi-cycle kinetics injections using a contact time of 60 sec., dissociation time of up to 300 sec., and a flow rate of 30 μl/min.
Solvent-corrected, reference-subtracted and blank-corrected data was processed and binding isotherms were fitted according to a single report point from each sensorgram (Standard: Late binding (5 sec. before injection end); alternative: Earlier report point according to binding profile). Data fitting was done both with unfixed Rmax and with Rmax fixed to the theoretical value* assuming 1:1 binding to allow processing of data from both weak and strong binders as well as to evaluate binding stoichiometry.
Positive controls were run at the beginning, during, and at the end of the screen to evaluate surface activity.
*Equation for calculation of the theoretical Rmax(Theoretical Rmax=(MW Analyte/MW Ligand)×immobilization level).
For orientation: SPR reads the build-up and loss of mass on a sensor chip optically.

For orientation: Emax means the greatest response seen or fitted, relative to the assay's reference. By Kd is commonly meant the constant that tells how readily two partners part at equilibrium. Read a low Kd as tighter binding. `CN(C)C(=O)c1ccc(C2CCN(Cc3cc4c(-n5ccc6[nH]nc(C(F)(F)F)c6c5=O)ccnc4n3C)C(=O)C2)cc1` (single isomer, unassigned) [Example 1ab1]: the Emax in assay [1] (Homo sapiens, 48 h) lay within 30 to 40%. The Kd in assay [2] was determined as 0.061 µM. With `CN(C)C(=O)c1ccc(C2CCN(Cc3cc4c(-n5ccc6[nH]nc(C(F)(F)F)c6c5=O)ccnc4n3C)C(=O)C2)cc1` (single isomer, unassigned) [Example 1ab2], the “Eotaxin-3 Emax (%)” value in assay [1] is 50-60%. The compound further showed a dissociation constant Kd in assay [2] of 0.0376 µM.

Consider `CN(C)C(=O)c1ccc(C2CCN(Cc3cc4c(-n5ccc(NC6CC6)cc5=O)ccnc4n3C)CC2)cc1` [Example 1d15, 4-[1-[[4-[4-(cyclo-Propylamino)-2-oxo-1-pyridyl]-1-methyl-pyrrolo[2,3-b]pyridin-2-yl]methyl]-4-piperidyl]-N,N-dimethyl-benzamide], for which the Kd in assay [2] came to 0.112 µM. In turn, `CN(C)C(=O)c1ccc(C2CCN(Cc3cc4c(-n5c(F)c(Cl)c(N)c(Cl)c5=O)ccnc4n3C)CC2)cc1` [Example 1d17, 4-[1-[[4-(4-Amino-3,5-dichloro-2-fluoro-6-oxo-1-pyridyl)-1-methyl-pyrrolo[2,3-b]pyridin-2-yl]methyl]-4-piperidyl]-N,N-methyl-benzamide] came in with a Kd in assay [2] of 6.62 µM. This Kd lies about 59-fold higher than the previous one. The same measure, in the same setting: for `[2H]C([2H])([2H])N(C(=O)c1ccc(C2CCN(Cc3cc4c(-n5ccc(NC)cc5=O)ccnc4n3C)CC2)c(C)c1)C([2H])([2H])[2H]` [Example 1d26, 3-Methyl-4-[1-[[1-methyl-4-[4-(methylamino)-2-oxo-1-pyridyl]pyrrolo[2,3-b]pyridin-2-yl]methyl]-4-piperidyl]-N,N-bis(trideuteriomethyl)benzamide] the value was 0.0697 µM; for `CN(C)C(=O)c1ccc(C2CCN(Cc3cc4c(-n5ccc(N)c(C6CC6)c5=O)ccnc4n3C)CC2)cc1` [Example 1d28, 4-[1-[[4-(4-Amino-3-cyclo-propyl-2-oxo-1-pyridyl)-1-methyl-pyrrolo[2,3-b]pyridin-2-yl]methyl]-4-piperidyl]-N,N-dimethyl-benzamide], 0.0764 µM.

In the case of `CN(C)C(=O)c1ccc(C2CC[N+]([O-])(Cc3cc4c(-n5ccc(N)cc5=O)ccnc4n3C)CC2)cc1` (centres unmarked) [Example 1d32, 4-[1-[[4-(4-Amino-2-oxo-1-pyridyl)-1-methyl-pyrrolo[2,3-b]pyridin-2-yl]methyl]-1-oxido-piperidin-1-ium-4-yl]-N,N-dimethyl-benzamide], the Kd in assay [2] was 0.333 µM. Still for that read-out and setting: for `CN(C)C(=O)c1ccc(C2CC[N+]([O-])(Cc3cc4c(-n5ccc6c(c5=O)CCN6)ccnc4n3C)CC2)cc1` (centres unmarked) [Example 1d33, N,N-Dimethyl-4-[1-[[1-methyl-4-(4-oxo-2,3-dihydro-1H-pyrrolo[3,2-c]pyridin-5-yl)pyrrolo[2,3-b]pyridin-2-yl]methyl]-1-oxido-piperidin-1-ium-4-yl]benzamide] the value was 0.0751 µM. Consider `CN(C)C(=O)c1ccc(C2CCN(Cc3cc4c(-n5ccc6c(c5=O)CCCN6)ccnc4n3C)CC2)cc1` [Example 1d35, N,N-Dimethyl-4-[1-[[1-methyl-4-(5-oxo-1,2,3,4-tetrahydro-1,6-naphthyridin-6-yl)pyrrolo[2,3-b]pyridin-2-yl]methyl]-4-piperidyl]benzamide], for which, in assay [2], binding was characterised by a dissociation constant (Kd) of 0.0251 µM. Still for that read-out and setting: the result for `CNc1ccn(-c2ccnc3c2cc(CN2CCC(c4ccc(C(=O)N(C)C)cc4C(F)(F)F)CC2)n3C)c(=O)c1` [Example 1d38, N,N-Dimethyl-4-[1-[[1-methyl-4-[4-(methylamino)-2-oxo-1-pyridyl]pyrrolo[2,3-b]pyridin-2-yl]methyl]-4-piperidyl]-3-(trifluoromethyl)benzamide] reads 0.57 µM. Same read-out and setting: the result for `CNc1ccn(-c2ccnc3c2cc(CN2CCC(F)(c4ccc(C(=O)N(C)C)cc4)CC2)n3C)c(=O)c1` [Example 1f5, 4-[4-Fluoro-1-[[1-methyl-4-[4-(methylamino)-2-oxo-1-pyridyl]pyrrolo-[2,3-b]pyridin-2-yl]methyl]-4-piperidyl]-N,N-dimethyl-benzamide] reads 0.156 µM; that for `CNc1ccn(-c2ccnc3c2cc(CN2CCN(c4ccc(C(=O)N(C)C)cc4)C[C@@H]2C)n3C)c(=O)c1` [Example 1m1, (S)—N,N-dimethyl-4-(3-methyl-4-((1-methyl-4-(4-(methylamino)-2-oxopyridin-1 (2H)-yl)-1H-pyrrolo[2,3-b]pyridin-2-yl)methyl)piperazin-1-yl)benzamide], 0.0586 µM. Consider `CNc1ccn(-c2ccnc3c2cc(CN2CCN(c4ccc(C(=O)N(C)C)cc4)C[C@H]2C)n3C)c(=O)c1` [Example 1m2, (R)—N,N-Dimethyl-4-(3-methyl-4-((1-methyl-4-(4-(methylamino)-2-oxopyridin-1 (2H)-yl)-1H-pyrrolo[2,3-b]pyridin-2-yl)methyl)piperazin-1-yl)benzamide], for which binding in assay [2] was put at a Kd of 0.188 µM. For `CNc1ccn(-c2ccnc3c2cc(CN2CCN(c4ccc(C(=O)N(C)C)cc4)CC2)n3C)c(=O)c1` [Example 1m3, N,N-Dimethyl-4-(4-((1-methyl-4-(4-(methylamino)-2-oxopyridin-1 (2H)-yl)-1H-pyrrolo[2,3-b]pyridin-2-yl)methyl)piperazin-1-yl)benzamide], in assay [2], the Kd worked out at 0.244 µM. The Kd values of the last two compounds are within 1.5-fold of each other.

The compound `CNc1ccn(-c2ccnc3c2cc(CN2CCN(c4ccc(C(=O)N(C)C)cn4)CC2)n3C)c(=O)c1` [Example 1m7, N,N-Dimethyl-6-(4-((1-methyl-4-(4-(methylamino)-2-oxopyridin-1 (2H)-yl)-1H-pyrrolo[2,3-b]pyridin-2-yl)methyl)piperazin-1-yl)nicotinamide] displayed a Kd in assay [2] of 0.735 µM.

As to `[2H]C([2H])([2H])N(C(=O)c1ccc(N2CCN(Cc3cc4c(-n5ccc(NC)cc5=O)ccnc4n3C)CC2)nc1)C([2H])([2H])[2H]` [Example 1m8, N,N-Bis(methyl-d3)-6-(4-((1-methyl-4-(4-(methylamino)-2-oxopyridin-1 (2H)-yl)-1H-pyrrolo[2,3-b]pyridin-2-yl)methyl)piperazin-1-yl)nicotinamide], in assay [2], the Kd was 0.64 µM. On the same count and under the same terms, for `CNc1ccn(-c2ccnc3c2cc(CN2CCC(c4ccc(C(=O)N(C)C)cn4)CC2)n3C)c(=O)c1` [Example 1m11, N,N-Dimethyl-6-(1-((1-methyl-4-(4-(methylamino)-2-oxopyridin-1 (2H)-yl)-1H-pyrrolo[2,3-b]pyridin-2-yl)methyl)piperidin-4-yl)nicotinamide] the value was 0.113 µM. The same measure, in the same setting: for `CNc1ccn(-c2ccnc3c2cc(CN2CC=C(c4ccc(C(=O)N(C)C)cn4)CC2)n3C)c(=O)c1` [Example 1m13, N,N-Dimethyl-1′-((1-methyl-4-(4-(methylamino)-2-oxopyridin-1 (2H)-yl)-1H-pyrrolo[2,3-b]pyridin-2-yl)methyl)-1′, 2′, 3′, 6′-tetrahydro-[2,4′-bipyridine]-5-carboxamide] the value was 0.167 µM; for `CNc1ccn(-c2ccnc3c2cc(CN2CC=C(c4ncc(C(=O)N(C)C)cc4C)CC2)n3C)c(=O)c1` [Example 1m14, N,N,3-Trimethyl-1′-((1-methyl-4-(4-(methylamino)-2-oxopyridin-1 (2H)-yl)-1H-pyrrolo[2,3-b]pyridin-2-yl)methyl)-1′, 2′, 3′, 6′-tetrahydro-[2,4′-bipyridine]-5-carboxamide], 0.0603 µM. In assay [2], `CNc1ccn(-c2ccnc3c2cc(CN2CCC(c4ncc(C(=O)N(C)C)cc4C)CC2)n3C)c(=O)c1` [Example 1m15, N,N,5-Trimethyl-6-(1-((1-methyl-4-(4-(methylamino)-2-oxopyridin-1 (2H)-yl)-1H-pyrrolo[2,3-b]pyridin-2-yl)methyl)piperidin-4-yl)nicotinamide] showed an equilibrium dissociation constant (Kd) of 0.572 µM. This Kd lies about 9.5-fold higher than the previous one.

In the case of `CNc1ccn(-c2ccnc3c2cc(C(C)N2CCC(c4ccc(C(=O)N(C)C)cc4)CC2)n3C)c(=O)c1` (centres unmarked) [Example 1m71, N,N-dimethyl-4-(1-(1-(1-methyl-4-(4-(methylamino)-2-oxopyridin-1 (2H)-yl)-1H-pyrrolo[2,3-b]pyridin-2-yl)ethyl)piperidin-4-yl)benzamide], binding in assay [2] was put at a Kd of 0.0164 µM.
